# Results as given in patent publication EP1803452A1, “ESTER DERIVATIVE AND PHARMACEUTICAL USE THEREOF” (Japan Tobacco, Inc., priority 2004, dated 2006).
# Experiments:
# [1] = Metabolic stability test in liver S9; format: in vitro ADME; details: pH 7.4, human liver S9 2 mg protein/mL, LC/MS; for remaining at 10 min: unchanged form after 10 minutes at 37°C, read-out: Remaining rate in human liver S9 (%/10min); for remaining at 1 h: unchanged form after 60 minutes at 37°C, read-out: Remaining rate in human liver S9 (%/60min)
# Protocol: Human liver S9 (final concentration: 2 mg protein/mL), was suspended in 100 mM potassium phosphate buffer (pH 7.4, containing β-nicotinamide adenine dinucleotide phosphate: 1.3 mM, D-glucose-6- phosphate: 3.3 mM, magnesium chloride: 3.3 mM, glucose-6-phosphate dehydrogenase:0.4 U/mL). The suspension was mixed with a solution of a sample dissolved in DMSO. The solution was incubated at 37°C for 0, 10 and 60 minutes, and an acetonitrile containing formic acid (final concentration: 0.1%) was added thereto. The solutions were centrifuged, and the concentration of the sample (unchanged form) in the supernatant was determined by high performance liquid chromatography/mass spectrometry (LC/MS). Based on the data obtained, remaining rate (%) was calculated according to the following equation. Remaining rate(%) = amount of sample 0,10, or 60 minutes after [formula] incubation/amount of sample at zero time after incubation × 100 [formula]
# (§1) With respect to the compounds obtained in Working Examples according to the present invention (Compounds 1-1 to 1-115, 2-1, 3-1, 3-2, and 4-1 to 4-4), the results of the remaining rate in human liver S9 and plasma are shown in Tables 28 to 32.
# [2] = Metabolic stability test in plasma; format: in vitro ADME, human; details: LC/MS; for remaining at 10 min: unchanged form after 10 minutes at 37°C in human plasma, read-out: Remaining rate in human plasma (%/10min); for remaining at 1 h: unchanged form after 60 minutes at 37°C in human plasma, read-out: Remaining rate in human plasma (%/60min)
# Protocol: A sample dissolved in DMSO was added to plasma of human or animal species (mouse and hamster). The solutions were incubated at 37°C for 0, 10 and 60 minutes, and acetonitrile containing formic acid (final concentration: 0.1%) was added thereto. The solutions were centrifuged, and the concentration of the sample (unchanged form) in the supernatant was determined by high performance liquid chromatography/mass spectrometry (LC/MS). Based on the data obtained, the remaining rate (%) was calculated according to the following equation. Remaining rate(%) = amount of sample 0,10, or 60 minutes after incubation/amount of sample at zero time after incubation × 100 [formula]
# as §1
# [3] = Stability test in buffer (pH 7.4); format: physicochemical; details: phosphate buffer/acetonitrile 7:3, 100 mM potassium phosphate buffer (pH 7.4) and acetonitrile 7:3 (v/v), LC/MS; for remaining at 10 min: 10 minutes at 37°C, read-out: Buf. remaining rate (%/10min); for remaining at 1 h: 60 minutes at 37°C, read-out: Buf. remaining rate (%/60min)
# Protocol: In the tables, Buf. remaining rate was determined by stability test in buffer (pH 7.4) as described below. A sample dissolved in DMSO was mixed with a mixed solution of 100 mM potassium phosphate buffer and acetonitrile in the ratio of 7:3 (v/v). The mixture was incubated at 37°C for 0, 10, and 60 minutes, and acetonitrile containing formic acid (final concentration: 0.1%) was added thereto. The solution was centrifuged, and the concentration of the sample (unchanged form) in the supernatant was determined by high performance liquid chromatography/mass spectrometry (LC/MS). Based on the data obtained, Buf. remaining rate (%) was calculated according to the following equation. Buf.remaining rate(%) = amount of sample 0,10, or 60 minutes after incubation/amount of sample at zero time after incubation × 100 [formula]
SMILES,remaining at 10 min [1] [%],remaining at 1 h [1] [%],remaining at 10 min [2] [%],remaining at 1 h [2] [%],remaining at 10 min [3] [%],remaining at 1 h [3] [%]
"COC(=O)c1ccc(OC(=O)CCCc2ccc(NC(=O)c3ccccc3-c3ccc(C(F)(F)F)cc3)c(C(=O)N(C)C)c2)cc1OC [Compound 1-17, 4-(4-{3-dimethylcarbamoyl-4-[(4'-trifluoromethylbiphenyl-2-carbonyl)amino]phenyl}butyryloxy) -2-methoxybenzoic acid methyl ester]",0,0,0,0,100,105
"COC(=O)c1ccc(OC(=O)CCCc2ccc(NC(=O)c3ccccc3-c3ccc(C(F)(F)F)cc3)c(C(=O)N(C)C)c2)cc1Cl [Compound 1-18, 2-chloro-4-(4-{3-dimethylcarbamoyl-4-[(4'-trifluoromethylbiphenyl-2-carbonyl)amino]phenyl}butyryloxy)benzoic acid methyl ester]",0,0,0,0,101,98
"COC(=O)c1ccc(OC(=O)CCCc2ccc(NC(=O)c3ccccc3-c3ccc(C(F)(F)F)cc3)c(C(=O)N(C)C)c2)c(C(F)(F)F)c1 [Compound 1-20, 4-(4-{3-dimethylcarbamoyl-4-[(4'-trifluoromethylbiphenyl-2-carbonyl)amino]phenyl}butyryloxy)-3-trifluoromethylbenzoic acid methyl ester]",0,0,0,0,102,99
"COC(=O)c1ccc(OC(=O)CCCc2ccc(NC(=O)c3ccccc3-c3ccc(C(F)(F)F)cc3)c(C(=O)N(C)C)c2)cc1C(F)(F)F [Compound 1-21, 4-(4-{3-dimethylcarbamoyl-4-[(4'-trifluoromethylbiphenyl-2-carbonyl)amino]phenyl}butyryloxy)-2-trifluoromethylbenzoic acid methyl ester]",0,0,0,0,104,103
"CN(C)C(=O)c1cc(CCCC(=O)Oc2ccc(C#N)cc2)ccc1NC(=O)c1ccccc1-c1ccc(C(F)(F)F)cc1 [Compound 1-23, 4-{3-dimethylcarbamoyl-4-[(4'-trifluoromethylbiphenyl-2-carbonyl)amino]phenyl}butyric acid 4-cyanophenyl ester]",0,0,21,0,99,99
"CN(C)C(=O)c1cc(CCCC(=O)Oc2ccc(C(=O)OCc3ccccc3)cc2)ccc1NC(=O)c1ccccc1-c1ccc(C(F)(F)F)cc1 [Compound 1-24, 4-(4-{3-dimethylcarbamoyl-4-[(4'-trifluoromethylbiphenyl-2-carbonyl)amino]phenyl}butyryloxy)benzoic acid benzyl ester]",10,6,9,4,95,95
"COC(=O)c1ccc(OC(=O)CCCc2ccc(NC(=O)c3cccnc3-c3ccc(C(F)(F)F)cc3)c(C(=O)N(C)C)c2)cc1 [Compound 1-28, 4-[4-(3-dimethylcarbamoyl-4-{[2-(4-trifluoromethylphenyl)pyridine-3-carbonyl]amino}phenyl)butyryloxy]benzoic acid methyl ester]",0,0,0,0,101,102
"CC(C)OC(=O)c1ccc(OC(=O)CCCc2ccc(NC(=O)c3ccncc3-c3ccc(C(F)(F)F)cc3)c(C(=O)N(C)C)c2)cc1 [Compound 1-29, 4-[4-(3-dimethylcarbamoyl-4-{[3-(4-trifluoromethylphenyl)pyridine-4-carbonyl]amino}phenyl)butyryloxy]benzoic acid isopropyl ester]",1,0,41,0,98,98
"CC(C)OC(=O)c1ccc(OC(=O)CCCc2ccc(NC(=O)c3cccnc3-c3ccc(C(F)(F)F)cc3)c(C(=O)N(C)C)c2)cc1 [Compound 1-31, 4-[4-(3-dimethylcarbamoyl-4-{[2-(4-trifluoromethylphenyl)pyridine-3-carbonyl]amino}phenyl)butyryloxy]benzoic acid isopropyl ester]",0,0,26,0,101,102

# Continued, values first:
remaining at 10 min [1] [%],remaining at 1 h [1] [%],remaining at 10 min [2] [%],remaining at 1 h [2] [%],remaining at 10 min [3] [%],remaining at 1 h [3] [%],SMILES
0,0,0,0,107,100,"COC(=O)c1ccc(OC(=O)CCCc2ccc(NC(=O)c3ccccc3-c3ccc(C(F)(F)F)cn3)c(C(=O)N(C)C)c2)cc1 [Compound 1-19, 4-(4-{3-dimethylcarbamoyl-4-[2-(5-trifluoromethylpyridin-2-yl)benzoylamino]phenyl}butyryloxy)benzoic acid methyl ester]"
0,0,8,0,96,98,"CC(=O)c1ccc(OC(=O)CCCc2ccc(NC(=O)c3ccccc3-c3ccc(C(F)(F)F)cc3)c(C(=O)N(C)C)c2)cc1 [Compound 1-22, 4-(3-dimethylcarbamoyl-4-[(4'-trifluoromethylbiphenyl-2-carbonyl)amino]phenyl}butyric acid 4-acetylphenyl ester]"
4,0,89,59,99,101,"CN(C)C(=O)c1cc(CCCC(=O)Oc2ccc(C(=O)O)cc2)ccc1NC(=O)c1ccccc1-c1ccc(C(F)(F)F)cc1 [Compound 1-25, 4-(4-{3-dimethylcarbamoyl-4-[(4'-trifluoromethylbiphenyl-2-carbonyl)amino]phenyl}butyryloxy) benzoic acid]"
0,0,23,0,99,102,"COC(=O)c1ccc(OC(=O)CCCc2ccc(NC(=O)c3ccccc3-c3ccc(C(F)(F)F)cc3)c(C(=O)N3CCOCC3)c2)cc1 [Compound 1-26, 4-(4-{3-(morpholine-4-carbonyl)-4-[(4'-trifluoromethylbiphenyl-2-carbonyl)amino]phenyl}butyryloxy)benzoic acid methyl ester]"
0,0,10,0,97,102,"COC(=O)c1ccc(OC(=O)CCc2ccc(NC(=O)c3ccccc3-c3ccc(C(F)(F)F)cc3)c(C(=O)N(C)C)c2)cc1 [Compound 1-27, 4-(3-{3-dimethylcarbamoyl-4-[(4'-trifluoromethylbiphenyl-2-carbonyl)amino]phenyl}propionyloxy)benzoic acid methyl ester]"
0,0,0,0,99,99,"COC(=O)c1ccc(OC(=O)CCCc2ccc(NC(=O)c3ccncc3-c3ccc(C(F)(F)F)cc3)c(C(=O)N(C)C)c2)cc1 [Compound 1-30, 4-[4-(3-dimethylcarbamoyl-4-{[3-(4-trifluoromethylphenyl)pyridine-4-carbonyl]amino}phenyl)butyryloxy]benzoic acid methyl ester]"
